In ChEMBL document CHEMBL1201862, “PubChem BioAssay data set” (2004) one finds EC50, AC50 and IC50 data, which are given here for 22 molecules.

The source made the active and inactive calls. Cut-off read from the data, not from the text of the source, for most assays here: actives have a measured EC50 and inactives only a lower limit.

In experiment [1] the target is Luciferin 4-monooxygenase (Photinus pyralis, UniProt P08659). Kind of experiment: inhibition of purified Photinus pyralis luciferase – biochemical, luminescence, dose response (AID 1891).
Chain of Luciferin 4-monooxygenase (P08659 whole entry): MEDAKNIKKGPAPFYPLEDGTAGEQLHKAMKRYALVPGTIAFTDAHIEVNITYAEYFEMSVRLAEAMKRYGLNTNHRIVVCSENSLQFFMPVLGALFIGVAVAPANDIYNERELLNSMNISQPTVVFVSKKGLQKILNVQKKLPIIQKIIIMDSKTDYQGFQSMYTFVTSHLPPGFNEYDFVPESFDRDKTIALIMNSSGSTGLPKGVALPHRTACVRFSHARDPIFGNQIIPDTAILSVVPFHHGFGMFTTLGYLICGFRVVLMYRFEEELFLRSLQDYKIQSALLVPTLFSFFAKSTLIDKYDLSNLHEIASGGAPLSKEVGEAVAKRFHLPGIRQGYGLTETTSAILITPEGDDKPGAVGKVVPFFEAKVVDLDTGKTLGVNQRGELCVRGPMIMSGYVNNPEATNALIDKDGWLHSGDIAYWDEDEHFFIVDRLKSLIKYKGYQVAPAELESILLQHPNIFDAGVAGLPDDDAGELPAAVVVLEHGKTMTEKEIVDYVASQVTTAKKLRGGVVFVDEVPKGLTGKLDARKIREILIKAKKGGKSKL
Experiment [2] can be described thus: Luminescence Cell-Based Dose Confirmation HTS to Identify Inhibitors of Platelet Dense Granule Release. [Related pubchem assays: 1663 (Primary HTS), 1678 (Summary of Project)]. Format: functional.
Experiment [3] addresses T1, Microphthalmia-associated transcription factor (Homo sapiens, UniProt O75030).
T1 sequence (O75030 whole entry): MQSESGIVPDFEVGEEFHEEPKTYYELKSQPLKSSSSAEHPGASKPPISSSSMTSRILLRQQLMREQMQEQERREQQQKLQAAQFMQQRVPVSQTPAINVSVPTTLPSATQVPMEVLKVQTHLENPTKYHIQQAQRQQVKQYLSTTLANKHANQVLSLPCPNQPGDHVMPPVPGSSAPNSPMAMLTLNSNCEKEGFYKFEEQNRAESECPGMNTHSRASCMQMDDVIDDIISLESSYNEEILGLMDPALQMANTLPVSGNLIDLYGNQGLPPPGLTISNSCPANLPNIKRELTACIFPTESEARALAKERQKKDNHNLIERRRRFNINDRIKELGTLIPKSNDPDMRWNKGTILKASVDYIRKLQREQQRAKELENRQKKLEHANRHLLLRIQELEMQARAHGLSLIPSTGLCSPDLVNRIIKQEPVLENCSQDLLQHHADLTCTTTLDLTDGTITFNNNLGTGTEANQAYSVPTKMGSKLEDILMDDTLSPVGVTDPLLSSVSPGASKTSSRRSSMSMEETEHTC
Kind of experiment: reducers of TRPM1 reporter luminescence, concentration series – cell-based, SK-MEL-5, cherry-picked, set 3, MITF inhibitor project, dose response (AID 493073).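 Note: SK-MEL-5 melanoma cells with luciferase driven by the MITF target TRPM1 promoter.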 It counts as functional.

A further experiment addresses T2, Cytochrome P450 1A2 (Homo sapiens, UniProt P05177).
T2 sequence (P05177 whole entry): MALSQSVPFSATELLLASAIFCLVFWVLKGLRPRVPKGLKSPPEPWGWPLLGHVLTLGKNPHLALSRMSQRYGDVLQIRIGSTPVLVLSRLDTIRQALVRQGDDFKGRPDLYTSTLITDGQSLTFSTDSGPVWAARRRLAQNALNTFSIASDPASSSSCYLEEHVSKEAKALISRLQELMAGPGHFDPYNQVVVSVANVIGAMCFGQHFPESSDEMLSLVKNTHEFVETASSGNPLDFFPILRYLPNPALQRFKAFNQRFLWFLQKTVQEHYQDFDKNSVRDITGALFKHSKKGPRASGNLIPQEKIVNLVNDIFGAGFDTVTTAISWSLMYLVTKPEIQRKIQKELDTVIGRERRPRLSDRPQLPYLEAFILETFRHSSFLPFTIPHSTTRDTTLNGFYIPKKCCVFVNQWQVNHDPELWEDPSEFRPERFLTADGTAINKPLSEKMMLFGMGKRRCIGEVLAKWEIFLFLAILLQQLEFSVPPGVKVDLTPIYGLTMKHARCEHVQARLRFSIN

For experiment [4], the target named is T3, Heat shock factor protein 1 (Mus musculus, UniProt P38532).
T3 sequence (P38532 whole entry): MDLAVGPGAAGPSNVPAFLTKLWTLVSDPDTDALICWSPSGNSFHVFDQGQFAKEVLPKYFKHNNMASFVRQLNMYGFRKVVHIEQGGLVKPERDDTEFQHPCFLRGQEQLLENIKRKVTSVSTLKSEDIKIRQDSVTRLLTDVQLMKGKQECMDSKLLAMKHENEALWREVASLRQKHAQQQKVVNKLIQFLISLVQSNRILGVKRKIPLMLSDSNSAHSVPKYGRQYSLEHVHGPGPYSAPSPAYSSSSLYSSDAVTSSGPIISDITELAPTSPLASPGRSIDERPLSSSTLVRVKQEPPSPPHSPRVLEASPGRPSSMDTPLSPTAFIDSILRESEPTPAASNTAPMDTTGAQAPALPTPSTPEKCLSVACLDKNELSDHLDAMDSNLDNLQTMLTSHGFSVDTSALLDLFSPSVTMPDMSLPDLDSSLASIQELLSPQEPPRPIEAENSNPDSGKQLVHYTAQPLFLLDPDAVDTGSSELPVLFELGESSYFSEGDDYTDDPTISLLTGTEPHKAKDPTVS
The experiment in a line: enhancement of HSF1-driven luciferase signal – cell-based, NIH3T3, luminescence, dose retest, confirmation (AID 435004).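 Note: stress induced by proteasome inhibitor MG132 added 30 min after compound; luciferase reporter driven by HSF1 response element in NIH3T3 cells; actives raise luminescence as potentiators of the MG132 stress response.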 It counts as functional.

A further experiment concerns the target Large T antigen (Simian virus 40, UniProt P03070). Format: functional, Betapolyomavirus macacae.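 Note: Confirmatory-stage PubChem screen for compounds that inhibit SV40 T antigen.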
The target of experiment [5] is T3, Heat shock factor protein 1. Kind of experiment: decrease of HSF1-responsive luciferase luminescence – cell-based, NIH3T3, dose retest, confirmation (AID 2382).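 Note: NIH3T3 fibroblasts with HSF1-driven luciferase reporter stressed by proteasome inhibitor MG132; luminescence from HSF1-driven luciferase expression after 8 hours of MG132 stress.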 It counts as functional.
Experiment [6] is described as follows: Trypanosoma cruzi growth suppression in host cells – NIH3T3 host cells, beta-gal luminescence, confirmation (AID 2044).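 Note: intracellular parasites grown in NIH/3T3 mouse fibroblasts as host cells; luminescent beta-galactosidase reporter signal from transgenic T. cruzi replicating inside host cells; inhibitors lower the luminescence signal.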 It counts as functional, cell-based.
A short description of experiment [7]: NIH3T3 cell viability loss – ATP luminescence, mouse fibroblasts, counter-screen, dose response (AID 2010).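 Note: cells exposed to compound for about 90 hours before reading.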 It counts as functional, cell-based.
For the next experiment, the target named is Paired box protein Pax-8 (Homo sapiens, UniProt Q06710). The experiment in a line: PAX8 transcriptional activity inhibition in RMG-I – RMG-I cells, luciferase, cherry-pick, dose response (AID 687027).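 Note: luciferase reporter driven by Pax8 target thyroperoxidase promoter measured by SteadyGlo luminescence.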 It counts as functional, cell-based.
Chain of Paired box protein Pax-8 (Q06710 whole entry): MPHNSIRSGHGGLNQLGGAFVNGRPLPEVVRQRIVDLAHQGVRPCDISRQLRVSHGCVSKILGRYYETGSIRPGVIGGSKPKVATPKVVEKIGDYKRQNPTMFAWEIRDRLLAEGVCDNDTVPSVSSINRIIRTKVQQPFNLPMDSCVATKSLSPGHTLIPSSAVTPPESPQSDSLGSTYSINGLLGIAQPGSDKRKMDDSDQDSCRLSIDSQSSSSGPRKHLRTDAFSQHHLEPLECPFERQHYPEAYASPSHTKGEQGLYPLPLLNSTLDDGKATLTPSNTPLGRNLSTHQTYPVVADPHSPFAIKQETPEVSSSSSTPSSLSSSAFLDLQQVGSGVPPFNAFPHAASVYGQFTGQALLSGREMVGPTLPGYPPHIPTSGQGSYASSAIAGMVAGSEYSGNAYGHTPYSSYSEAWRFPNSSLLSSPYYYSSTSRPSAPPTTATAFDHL
Experiment [8] can be described thus: NIH-3T3 fibroblast cytotoxicity, dose response, cytotoxicity control, cell-based, fluorescence, Alamar Blue, secondary assay (AID 2327).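 Note: NIH-3T3 mouse fibroblasts cultured with fluconazole at 8 µg/mL.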 Format: functional. In general terms: Resazurin is reduced to fluorescent resorufin, in cell work by metabolically active cells.
Experiment [9] in a line: fluconazole-exposed Candida albicans growth modulators – fluorescence, retest, confirmation (AID 2467). It counts as functional, cell-based.
The next experiment concerns the target Nonstructural protein 1 (Influenza A virus, UniProt Q194T2). Format: functional, Influenza A virus (A/California/07/2009(H1N1)).
Experiment [10] has as its target T4, Rac GTPase-activating protein 1 (Homo sapiens, UniProt Q9H0H5).
T4 sequence (Q9H0H5 whole entry): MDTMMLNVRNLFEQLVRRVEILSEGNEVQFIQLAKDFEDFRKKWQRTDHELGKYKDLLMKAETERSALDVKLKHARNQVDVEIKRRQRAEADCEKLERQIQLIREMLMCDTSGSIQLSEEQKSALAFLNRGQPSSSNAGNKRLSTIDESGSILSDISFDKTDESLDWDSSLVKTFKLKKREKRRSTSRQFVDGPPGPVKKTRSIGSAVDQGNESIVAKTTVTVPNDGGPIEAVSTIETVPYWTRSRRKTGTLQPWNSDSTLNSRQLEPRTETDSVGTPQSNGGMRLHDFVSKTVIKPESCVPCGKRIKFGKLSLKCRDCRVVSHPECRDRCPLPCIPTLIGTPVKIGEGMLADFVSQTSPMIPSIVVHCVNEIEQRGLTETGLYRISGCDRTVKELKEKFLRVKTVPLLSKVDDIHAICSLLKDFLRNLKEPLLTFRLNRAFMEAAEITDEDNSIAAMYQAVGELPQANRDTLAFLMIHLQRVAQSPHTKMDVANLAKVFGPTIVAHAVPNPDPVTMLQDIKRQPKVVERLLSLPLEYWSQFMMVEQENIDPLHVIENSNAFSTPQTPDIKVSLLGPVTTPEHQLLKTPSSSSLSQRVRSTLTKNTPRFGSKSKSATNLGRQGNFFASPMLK
Kind of experiment: blockers of MgcRacGAP-driven Rac1 GTP hydrolysis – biochemical, ADP Hunter fluorescence, primary and confirmatory, confirmation (AID 624330). It counts as functional.

The next experiment relates to INS1. Kind of experiment: INS-1E survival protection against cytokine death – cell-based, luminescence, retest, dose response (AID 449756).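 Note: cell death triggered by IL-1 beta plus TNF-alpha plus IFN-gamma mixture; protective hits raise ATP signal compared with cytokine alone wells.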 Format: functional. The settings on record: Rattus norvegicus.

Chain of Large T antigen (P03070 whole entry): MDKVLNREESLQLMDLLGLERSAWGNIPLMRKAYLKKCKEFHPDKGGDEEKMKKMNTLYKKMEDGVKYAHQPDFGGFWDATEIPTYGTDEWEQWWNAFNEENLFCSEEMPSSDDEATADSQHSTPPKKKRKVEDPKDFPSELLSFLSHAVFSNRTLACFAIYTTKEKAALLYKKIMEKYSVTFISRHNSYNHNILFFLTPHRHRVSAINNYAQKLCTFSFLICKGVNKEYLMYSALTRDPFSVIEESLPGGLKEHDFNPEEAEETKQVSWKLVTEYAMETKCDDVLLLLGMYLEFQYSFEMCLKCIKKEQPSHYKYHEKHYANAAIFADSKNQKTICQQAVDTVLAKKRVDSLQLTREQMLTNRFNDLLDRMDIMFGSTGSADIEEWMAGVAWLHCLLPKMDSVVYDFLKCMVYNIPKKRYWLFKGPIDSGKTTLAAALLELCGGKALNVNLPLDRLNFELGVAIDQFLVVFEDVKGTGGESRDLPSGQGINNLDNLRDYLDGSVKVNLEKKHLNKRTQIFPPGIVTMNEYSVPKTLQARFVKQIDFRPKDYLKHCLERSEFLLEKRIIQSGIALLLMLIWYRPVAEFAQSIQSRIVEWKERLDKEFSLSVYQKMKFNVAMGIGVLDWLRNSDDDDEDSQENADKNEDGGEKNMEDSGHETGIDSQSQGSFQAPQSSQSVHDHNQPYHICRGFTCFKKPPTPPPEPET
Chain of Nonstructural protein 1 (Q194T2 whole entry): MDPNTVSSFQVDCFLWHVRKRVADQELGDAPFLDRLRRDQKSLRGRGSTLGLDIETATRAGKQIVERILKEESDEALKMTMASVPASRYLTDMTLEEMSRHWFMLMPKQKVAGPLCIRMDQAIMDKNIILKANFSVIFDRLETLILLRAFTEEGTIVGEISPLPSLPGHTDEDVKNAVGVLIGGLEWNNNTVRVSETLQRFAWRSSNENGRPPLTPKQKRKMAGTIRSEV

In general, EC50 refers to the concentration needed to bring the measured effect to its halfway point. In general, AC50 refers to the midpoint of the concentration-response curve, whichever way the signal moves. For `COc1cc(/C=N/NC(N)=O)c(Br)cc1OCC(=O)Nc1ccccc1C`, the EC50 in experiment [1] and in [2] was > 112 µM (not active) each time. Besides, the results for the AC50 (in experiment [3]; at Cytochrome P450 1A2) were 17.8 µM (active) and 14.1 µM (inconclusive), respectively.

`CSc1sc(C(=O)Nc2ccc(F)cc2F)c2c1C=CCC2`: the EC50 in experiment [4] is > 260 µM (inactive).

A word on the IC50: it is the midpoint of a concentration-inhibition curve. `COc1ccc(Nc2ccc(Cl)cc2)c(C(=O)O)c1`: the IC50 on Large T antigen was 18 µM (active).

As for `CC1CN(C(=S)NC(=O)C2CCCCC2)CC(C)O1` (stereo not given), the EC50 in experiment [4] was > 260 µM (inactive).

For the molecule `CCC(=O)N1CCN(c2ccc(NC(=O)c3ccc([N+](=O)[O-])o3)cc2)CC1`, the EC50 was > 195 µM (not active) in [5], 5.98 µM (active) in [6] and 7.54 µM (active) in [7]. The AC50 in experiment [3] is 8.68 µM (active); on Paired box protein Pax-8, 5.31 µM (active).

`COc1ccc(CCNC(=O)Nc2cccc([N+](=O)[O-])c2)cc1OC`: in experiment [4], the EC50 was > 260 µM (inactive).

As to `CCN(CC)C(=O)/C(=C/c1ccc2c(c1)OCO2)NC(=O)c1ccc(Br)cc1`, the EC50 in experiment [8] is > 150 µM (inactive); in experiment [9], 3.58 µM (active).

With `CCN(CC)c1ccc(NC(=O)CSc2nc3nc(C)cc(C)c3c(=O)[nH]2)cc1`, on Large T antigen, the IC50 was 10.2 µM (active).

As for `CCc1cc2c(Nc3ccc(O)cc3)nc(C)nc2s1`, on Large T antigen, the IC50 is 23.7 µM (active).

On to `CCCCCCCCC(=O)NNC(=O)c1c(O)c2ccccc2n(CC)c1=O`, for which the EC50 in [8] is > 150 µM (inactive); in experiment [9], 2.96 µM (active).

With `Cc1cccc2sc(N(CCCN(C)C)C(=O)c3nc4ccccc4s3)nc12`, the AC50 in experiment [3] was 10.9 µM (active).

`Cc1ccc(-n2cc(CNCCN3CCOC3=O)c(-c3cccc(C)c3)n2)cc1`: in [4], the EC50 was > 260 µM (inactive).

For the molecule `C=C1CCC[C@]2(C)C[C@H]3OC(=O)C(CN4CCCCC4CO)[C@H]3CC12` (stereo not given in full), in experiment [3], the AC50 was 11 µM (active).

Regarding `O=C1C=CC(=C(c2ccc(O)cc2)c2ccc(O)cc2)C=C1` [AURIN], the IC50 at Nonstructural protein 1 was 59.1 µM (active). The AC50 is 9.92 µM (active) in experiment [3] and 8.81 µM (active) on Paired box protein Pax-8.

As to `CN(C)c1ccc(NC2=C([N+](=O)[O-])CS(=O)(=O)C2)cc1`, the IC50 was 5.71 µM (active) at Large T antigen and 42.7 µM (active) in experiment [10].

Consider `O=c1c2ccccc2nc(SCc2nnc(-c3ccccc3Br)o2)n1Cc1ccco1`, for which the EC50 in experiment [4] was > 260 µM (inactive).

For the molecule `CC(C)OC(=O)c1c(NC(=O)Cn2cnc([N+](=O)[O-])n2)sc2c1CCCC2`, the results for the EC50 in experiment [6], in [7] and in experiment [4] were 0.203 µM (active), > 60 µM (not active) and > 260 µM (inactive), respectively.

For `Cc1ccc(-c2nc3ccc(Cl)cc3c(=O)n2O)cc1`, the EC50 was > 160 µM (inactive) in experiment [8] and 1.58 µM (active) in experiment [9].

As for `CCOc1c(Br)cc(CNc2ccc(N3CCN(C(C)=O)CC3)cc2)cc1OC`, the IC50 at Large T antigen was 6.23 µM (active).

With `CC1=C(C(=O)c2ccccc2)C(c2ccc(O)cc2)NC(S)=N1` (stereo not given), the IC50 on Large T antigen is > 100 µM (active).

`O=C(N/N=C/C=C(\O)c1ccc([N+](=O)[O-])cc1)c1ccccc1`: the EC50 in experiment [6] was 2.02 µM (active); in experiment [7] it was 17.6 µM (active). The half-maximal activity concentration (AC50) in experiment [3] was 9.19 µM (active); in the experiment on INS1, 1.76 µM (active).

`Cc1ccc(O)c(NC(=O)CSc2n[nH]c(-c3ccccc3)n2)c1`: the EC50 in experiment [4] was 10 µM (active).
